Consider three molecules from paper PMC6478789, “A chemical toolbox for the study of bromodomains and epigenetic signaling” (Nature Communications, 2019).

Test [1] concerns MDA-MB-436 cells. Kind of test: Confluency with BRPF inhibitors and BAY-876. Particulars: 3 μM, 7 days. In kind it is cell-based, human. Here is the method:
Graph indicates mean, error bars denote s.d. from eight wells (from two independent assays) and p-value was computed using the Benjamini-Hochberg t test; ***p < 0.001. d Immunoblot validation of BRPF knockdown in MDA-MB-436 cells. e Quantitative real-time PCR (RT-qPCR) validation of BRPF knockdown in MDA-MB-436 cells. […] Raw data images are available in Supplementary Fig. 4
TNBC cell lines were seeded in sterile, transparent 384-well plates at 500 cells per well in 50 µl media. Chemical probes were delivered in dimethyl sulfoxide (DMSO). Cell confluency at 7 days was evaluated using an Incucyte ZOOM live cell imaging device (Essen Bioscence) and analyzed with the Incucyte ZOOM (2016A) software based on phase contrast image.

For test [2], the system named is MDA-MB-436 cells. Kind of test: Immunoblot of H3K14 acetylation. Particulars: 3 μM, 5 days; compared to NI-57 and PFI-4. It is filed as cell-based, human. The text has this:
Graph indicates mean, error bars denote s.d. from eight wells (from two independent assays) and p-value was computed using the Benjamini-Hochberg t test; ***p < 0.001. d Immunoblot validation of BRPF knockdown in MDA-MB-436 cells. e Quantitative real-time PCR (RT-qPCR) validation of BRPF knockdown in MDA-MB-436 cells. […] Raw data images are available in Supplementary Fig. 4 […]
Total cell lysates were resolved in 4−12% Bis-Tris protein gels (Invitrogen) with MOPS (3-(N-morpholino)propanesulfonic acid) buffer (Invitrogen) and transferred for 1.5 h (80 V) onto polyvinylidene fluoride membrane (Millipore) in Tris-glycine transfer buffer containing 20% MeOH and 0.05% sodium dodecyl sulfate. […] The signal was read on an Odyssey scanner (LiCor) at 800 and 700 nm.
Wu et al., Supplementary figures and tables 5 indicate mean and error bars denote standard deviation from eight wells (from two independent assays). b) A representative immunoblot of histone acetylation level across ten TNBC lines. c) Plot of ECAR and histone acetylation across ten TNBC lines. […] Cell apoptotic activity was quantified by the fluorescent caspase 3/7 active objects. […]

The next test concerns the target T1, ATAD2B (Homo sapiens, UniProt Q9ULI0).
T1 sequence (Q9ULI0 951-1066 limits assumed): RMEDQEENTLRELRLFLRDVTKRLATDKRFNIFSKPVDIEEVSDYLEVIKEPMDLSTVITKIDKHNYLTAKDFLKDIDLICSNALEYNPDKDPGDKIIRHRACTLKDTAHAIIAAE
The arrangement: purchased; method as in ref 18 (suppl.). Particulars: ITC; ref 18 (suppl.); cited from earlier work. Background: In ITC the heat of successive injections is recorded.

In the next test the target is T2, ATAD2A (Homo sapiens, UniProt Q6PL18).
T2 sequence (Q6PL18 980-1092 limits assumed): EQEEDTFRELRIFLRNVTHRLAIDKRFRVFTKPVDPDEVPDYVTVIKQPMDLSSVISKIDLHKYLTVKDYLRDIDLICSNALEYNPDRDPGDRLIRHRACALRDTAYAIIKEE
The arrangement: purchased; method as in ref 20 (suppl.). Particulars: BROMOscan; ref 20 (suppl.); cited from earlier work.

In the case of `COc1cc2c(cc1NS(=O)(=O)c1ccc(Br)cc1C)n(C)c(=O)n2C` [OF-1], in the test on MDA-MB-436 cells [1], the “cell viability, co-treatment with BAY-876” value is listed as “strongest reduction of cell viability”. In addition, the “acetylation of H3K14” value with MDA-MB-436 cells [2] is listed as “significantly decreased”.

As to `CO[C@H]1CNC[C@@H](OCC2CCC(F)(F)CC2)[C@@H]1Nc1ncc(-c2cncc(C)c2)c2cc(C)c(=O)[nH]c12` [GSK8814], at ATAD2B, the Kd was 10 nM. `COc1cc(Cl)c(C(=O)N[C@@H](CN[C@H]2CC[C@@H](N)CC2)Cc2ccc(C#N)cc2)cc1-c1ccc(CN[C@H](C)c2ccc(C)cc2)o1` [BAY-850]: the Kd on ATAD2A is 120 nM.

In general, Kd refers to a measure of binding affinity in units of concentration.
